From patent publication US20180230160A1, “2-AMINO-7A-PHENYL-3,4,4A,5,7,7A-HEXAHYDROFURO[3,4-B]PYRIDINES AS BACE1 INHIBITORS” (H. Lundbeck A/S, priority 2015, published 2018) come the findings set out here.

Read-outs that look alike come from different tables or passages of the source.

The subject of series [1] is Aβ40 peptide. The series is described as follows: Assessment of Aβ peptide levels in rat brain and plasma following BACE1 inhibition (Aβ40 ELISA). To be noted: 3 hours post dose, vs vehicle. The format is in vivo. How it is done: Assessment of Aβ Peptide Levels in Rat Brain and Plasma Following BACE1 Inhibition. Animals.
(§1) Young adult Male Sprague Dawley rats of approximately 250 g weight were purchased from Charles River and received 0-30 mg/kg of vehicle (10% HP betaCD+1M MeSO4, pH 2.5) or test compounds (dissolved in vehicle) only by oral gavage (p.o). The compounds are dosed at a volume of 5 ml/kg. Cohorts of 5-10 animals were established for each treatment condition.
(§2) At T=180 minutes after initial dosing the animals were stunned and decapitated with a guillotine. Trunk-blood was sampled in EDTA coated tubes after decapitation of the animal. The blood was centrifuged at 2200G at 4° C. for 15 minutes and the plasma was collected and frozen at −80° C. The blood was aliquoted for Aβ ELISA and DMPK analysis. Immediately following sacrifice, the brain was extracted and split into 2 halves. The right hemibrains were snap frozen on dry ice and stored at −80° C. The left half was dissected; with the front forebrain taken for Aβ ELISA and the remainder used for DMPK analysis. These samples were also snap frozen on dry ice and stored at −80° C. until use for analysis.
The cortex samples were thawed slightly on wet ice before they were homogenized with a small volume dispersing instrument (T10 basic ULTRA-TURRAX®) which was set at speed 5 for approximately 5-7 sec. The tissue was processed in a 10 times volume of the weight, for example 100 mg of tissue was homogenized in 1000 μL of Homogenization buffer. Homogenization buffer: 50 ml Milli Q water+50 nM NaCl+0.2% Diethylamin (DEA)+1 tablet of Complete Protease inhibitor cocktail+1 nM 4-(2-aminoethyl) benzenesulfonyl fluoride hydrochloride irreversible serine protease inhibitor (AEBSF).
After homogenization 450 μL aliquots of the samples are collected into a 1.5 ml Eppendorf tube and placed on wet ice, 0.5% NP-40 (50 ul) was added to all samples and then they were incubated on ice for 30 min. After which all samples were sonicated using an Ultrasonic homogenizer with 20 kHz homogeneous sound (SONOPLUS HD2070, Bandelin Electronic) 10 pulse set at 12-13% power to extract all the Aβ species. The samples were then centrifuged (Ole Dich 157 MPRF Micro centrifuge) at 20000G for 20 minutes at 4° C. After centrifugation 285 μL of the supernatant was pipetted into 600 μL microtubes tubes and neutralized with 15 μL of 1M Tris-HCL buffer.
WAKO 294-62501 Human/Rat Abeta amyloid (40) kit was used for all ELISA analyses. 30 μL plasma samples or 30 μL of the cortex supernatants generated as described above were placed in 600 μL microtubes tubes on wet ice. To this 30 μL of 8M urea (AppliChem A1049, 9025) was added to generate a 2-fold dilution. Both plasma and cortex supernatants were incubated on ice for 30 min. Standard rows were prepared from the standard peptide stock provided in the kit and standard diluent containing 1.6M urea (200 μL 8M urea+800 μL of standard diluent) and 0.8M urea (400 μL 8M Urea+3600 μL Standard diluent). A serial 2-fold dilution of Aβ40 from 100 pmol/ml to 0 pmol/L was prepared for the assay.
After incubation with urea, all samples were further diluted by addition of 5 times standard diluent from the Kit. This was done by adding 240 μL Standard Diluent to 60 μL sample/urea mixture, which was then mixed well. 100 μL of each diluted sample was pipetted into designated wells of the ELISA plate in duplicates. The plate was then covered and incubated overnight at 4° C. The following day, the ELISA kit was brought to room temperature before use. The incubated plate was washed 5 times with the 20× washing solution diluted in Milli Q water. 100 μL HRP-conjugate was applied to each well, and the plate was covered and incubates at 4° C. for 1 hr. The wash was repeated again for 5 times. 100 μL 3,3′,5,5′-Tetramethylbenzidine (TMB) solution was applied to each well and the plate was covered and incubated in the dark at room temperature for 30 minutes. […]
(ELISA stands for enzyme-linked immunosorbent assay.)

Series [2] in a line: Compound exposure in rat brain and plasma after oral dosing (DMPK analysis). To be noted: male, Sprague Dawley, 3 hours post dose; for concentration at 3 h: read-out: Exp (exposure); for Kp at 3 h: brain/plasma, read-out: Brain/Plasma ratio. The format is in vivo. How it is done:
as §1, §2
The results of the administration of representative Compounds of Examples 1, 2, 5, […], of brain and plasma samples collected at 3 hours post dose and then following exposures, as described above, are tabulated below.

In series [3] the target is human BACE1 (Homo sapiens, UniProt P56817). The series is described as follows: BACE1 binding assay (SPA-based radioligand binding). Details: biotin (biotinylated form); made in house; host or cells: Freestyle HEK293 cells. To be noted: pH 4.5, 10 nM radioligand, Ki=IC50/(1+L/Kd). How it is done: The binding assay was performed as SPA-based assay using a biotinylated form of human BACE1 recombinantly expressed and subsequently purified from Freestyle HEK293 cells. The binding assay was run in a 50 mM sodium acetate buffer, pH 4.5 containing 50 mM NaCl and 0.03% Tween-20 in white clear bottom 384 plates (Corning #3653). 10 nM (final concentration) radioligand ([^3H]—N-((1S,2R)-1-benzyl-3-cyclopropylamino-2-hydroxy-propyl)-5-(methanesulfonyl-methyl-amino)-N—((R)-1-phenyl-ethyl)-isophthalamide) (TRQ11569 purchased from GE Healthcare) was mixed with test compound at a given concentration, 6 nM (final concentration) human BACE1 and 25 μg Streptavidin coated PVT core SPA beads (RPNQ0007, GE Healthcare Life Sciences) in a total volume of 40 μl. Several concentrations of each test compound were tested in the assay for […] determination. The plates were incubated for one hour at room temperature and counted in a Wallac Trilux counter. Total and non-specific binding were determined using buffer and 1 μM (final concentration) of the high affinity BACE1 reference inhibitor (S)-6-[3-chloro-5-(5-prop-1-ynyl-pyridin-3-yl)-thiophen-2-yl]-2-imino-3,6-dimethyl-tetrahydro-pyrimidin-4-one, respectively. For each test compound, a 1050 value (the concentration mediating 50% inhibition of the specific binding of the radioligand) was determined from concentration-response curve and used to calculate the Ki from the equation Ki=IC50/(1+L/Kd), where L and Kd are the final concentration of the radioligand used in the assay and the dissociation constant of the radioligand, respectively. The Kd of the radioligand was determined from saturation binding experiments.
Chain of human BACE1 (P56817 46-501): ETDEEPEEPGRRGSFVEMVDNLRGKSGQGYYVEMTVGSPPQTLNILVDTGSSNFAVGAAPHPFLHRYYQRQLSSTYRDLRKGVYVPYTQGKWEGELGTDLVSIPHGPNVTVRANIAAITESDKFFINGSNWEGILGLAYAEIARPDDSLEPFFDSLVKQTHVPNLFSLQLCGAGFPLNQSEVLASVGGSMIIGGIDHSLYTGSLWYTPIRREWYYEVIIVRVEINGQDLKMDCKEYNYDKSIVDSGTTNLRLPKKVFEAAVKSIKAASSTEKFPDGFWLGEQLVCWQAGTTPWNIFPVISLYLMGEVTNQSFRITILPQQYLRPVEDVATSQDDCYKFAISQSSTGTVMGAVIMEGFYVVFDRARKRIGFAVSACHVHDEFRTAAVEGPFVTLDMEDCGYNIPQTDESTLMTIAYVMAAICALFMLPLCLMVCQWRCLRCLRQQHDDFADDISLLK

Series [4] deals with P-gp (MDR1). The series is described as follows: MDCK-MDR1 assay (permeability, efflux ratio). The format is in vitro ADME. The settings on record: dog, Papp BA/Papp AB, 60-minute incubation. How it is done:
The permeability of the test compounds was assessed in MDCK-MDR1 cells that were cultured to confluency (4-6 days) in a 96 transwell plate. Test compounds were diluted with the transport buffer (HBSS+1% BSA) to a concentration of 0.5 μM and applied to the apical or basolateral side of the cell monolayer. Permeation of the test compounds from A to B direction or B to A direction was determined in triplicate over a 60-minute incubation time at 37° C. and 5% CO2 with a relative humidity of 95%. Test compounds were quantified by LC-MS/MS analysis based on the peaks area ratios of analyte/IS in both the receiver and donor wells of the transwell plate. The apparent permeability coefficient Papp (cm/s) was calculated using the equation: […]
Where dCr/dt is the cumulative concentration of compound in the receiver chamber as a function of time (μM/s); Vr is the solution volume in the receiver chamber (0.05 mL on the apical side; 0.25 mL on the basolateral side); A is the surface area for the transport, i.e. 0.0804 cm^2 for the area of the monolayer; CO is the initial concentration in the donor chamber (μM).

Consider `[2H]C([2H])([2H])Oc1ccc(C(=O)Nc2ccc(F)c([C@]34COC[C@@]3(F)C[C@](C)(F)C(N)=N4)c2)nc1` [Example 1, N-(3-((3S,4aR,7aS)-2-amino-3,4a-difluoro-3-methyl-3,4,4a,5-tetrahydrofuro[3,4-b]pyridin-7a-yl)-4-fluorophenyl)-5-(methoxy-d3)picolinamide], for which the Aβ40 reduction amounted to 34% in series [1] (Brain, 10 mg/kg p.o.); 54% in series [1] (Brain, 30 mg/kg p.o.); 38% in series [1] (Plasma, 10 mg/kg p.o.); 52% in series [1] (Plasma, 30 mg/kg p.o.). For the same compound, the concentration at 3 h turned out to be 194 ng/g in series [2] (Brain, 10 mg/kg p.o.); 951 ng/g in series [2] (Brain, 30 mg/kg p.o.); 184 ng/g in series [2] (Plasma, 10 mg/kg p.o.); 634 ng/g in series [2] (Plasma, 30 mg/kg p.o.). The results for the Kp at 3 h in series [2] (10 mg/kg p.o.) and in series [2] (30 mg/kg p.o.) were 1.06 and 1.5, respectively.
Compound `C[C@]1(F)C[C@]2(F)COC[C@]2(c2cc(NC(=O)c3cnc(C(F)F)cn3)ccc2F)N=C1N` [Example 3, N-(3-((3S,4aR,7aS)-2-amino-3,4a-difluoro-3-methyl-3,4,4a,5,7,7a-hexahydrofuro[3,4-b]pyridin-7a-yl)-4-fluorophenyl)-5-(difluoromethyl)pyrazine-2-carboxamide] showed a Ki in series [3] of 48 nM. The efflux ratio at 60 min, 0.5 μM in series [4] is 0.96.
For `C[C@]1(F)C[C@]2(F)COC[C@]2(c2cc(NC(=O)c3ccc(Cl)cn3)ccc2F)N=C1N` [Example 6, N-(3-((3S,4aR,7aS)-2-amino-3,4a-difluoro-3-methyl-3,4,4a,5,7,7a-hexahydrofuro[3,4-b]pyridin-7a-yl)-4-fluorophenyl)-5-chloropicolinamide] the same measures were 6.4 nM and 1.01.
Regarding `C[C@@]1(F)C[C@]2(F)COC[C@]2(c2cc(NC(=O)c3cnc(C(F)F)cn3)ccc2F)N=C1N` [Example 8, N-(3-((3R,4aR,7aS)-2-amino-3,4a-difluoro-3-methyl-3,4,4a,5,7,7a-hexahydrofuro[3,4-b]pyridin-7a-yl)-4-fluorophenyl)-5-(difluoromethyl)pyrazine-2-carboxamide], the Ki in series [3] was 14 nM. In addition, the efflux ratio at 60 min, 0.5 μM in series [4] was found to be 1.23.
Take `Cc1csc(C(=O)Nc2ccc(F)c([C@]34COC[C@@]3(F)C[C@@](C)(F)C(N)=N4)c2)n1` [Example 9, N-(3-((3R,4aR,7aS)-2-amino-3,4a-difluoro-3-methyl-3,4,4a,5,7,7a-hexahydrofuro[3,4-b]pyridin-7a-yl)-4-fluorophenyl)-4-methylthiazole-2-carboxamide]: the affinity in series [3] corresponds to a Ki of 23 nM. In addition, the efflux ratio at 60 min, 0.5 μM in series [4] stood at 1.33.
For `Cc1nc(C(=O)Nc2ccc(F)c([C@]34COC[C@@]3(F)C[C@@](C)(F)C(N)=N4)c2)co1` [Example 10, N-(3-((3R,4aR,7aS)-2-amino-3,4a-difluoro-3-methyl-3,4,4a,5,7,7a-hexahydrofuro[3,4-b]pyridin-7a-yl)-4-fluorophenyl)-2-methyloxazole-4-carboxamide] the same measures were 22 nM and 2.46.
Take `[2H]C([2H])([2H])Oc1cnc(C(=O)Nc2ccc(F)c([C@]34COC[C@@]3(F)C[C@@](C)(F)C(N)=N4)c2)cn1` [Example 13, N-(3-((3R,4aR,7aS)-2-amino-3,4a-difluoro-3-methyl-3,4,4a,5-tetrahydrofuro[3,4-b]pyridin-7a-yl)-4-fluorophenyl)-5-(methoxy-d3)pyrazine-2-carboxamide]: affinity in series [3] was put at a Ki of 29 nM.
For the compound `C[C@@]1(F)C[C@]2(F)COC[C@]2(c2cc(NC(=O)c3ccc(Cl)cn3)ccc2F)N=C1N` [Example 14, N-(3-((3R,4aR,7aS)-2-amino-3,4a-difluoro-3-methyl-3,4,4a,5,7,7a-hexahydrofuro[3,4-b]pyridin-7a-yl)-4-fluorophenyl)-5-chloropicolinamide], affinity in series [3] was put at a Ki of 9.3 nM. The efflux ratio at 60 min, 0.5 μM in series [4] turned out to be 0.91.
Turning to `NC1=N[C@@]2(c3cc(NC(=O)c4ccc(F)cn4)cc(F)c3F)COC[C@H]2C[C@]1(F)CF` [Example 19, N-[3-[(3R,4aS,7aS)-2-amino-3-fluoro-3-(fluoromethyl)-4,4a,5,7-tetrahydrofuro[3,4-b]pyridin-7a-yl]-4,5-difluoro-phenyl]-5-fluoro-pyridine-2-carboxamide], the affinity in series [3] corresponds to a Ki of 340 nM.
Same read-out and setting: then `COc1ccc(C(=O)Nc2cc(F)c(F)c([C@]34COC[C@H]3C[C@@](F)(CF)C(N)=N4)c2)nc1` [Example 25, N-[3-[(3S,4aS,7aS)-2-amino-3-fluoro-3-(fluoromethyl)-4,4a,5,7-tetrahydrofuro[3,4-b]pyridin-7a-yl]-4,5-difluoro-phenyl]-5-methoxy-pyridine-2-carboxamide], with 230 nM.

One may read the Ki as a dissociation constant, usually derived from enzyme kinetics or from competition with a known ligand. A higher Ki goes with a looser hold on the target. As usually defined, the efflux ratio is the permeability from basolateral to apical divided by that in the opposite direction, in the common usage.
